# Source: article PMC10387993, “New pyrimidine-N-β-D-glucosides: synthesis, biological evaluation, and molecular docking investigations” (Turkish Journal of Chemistry, 2023)
# Where two headings read alike, the source gives them in different places.
# What was measured:
# Assay type in all cases: cell-based
# [1] = test system: A. actinomycetemcomitans ATCC 33384; experiment: Microdilution MIC assay; settings: Aggregatibacter actinomycetemcomitans, ATCC33384; A. actinomycetemcomitans ATCC 33384, 24 h at 35 °C
# Method in brief: (§1)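 Compounds were serially diluted in microwells and inoculated with each strain. After 24 h incubation at 35 °C, growth was scored visually. The MIC was the lowest concentration showing no turbidity.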
# [2] = test system: S. aureus MSSA ATCC 29213; experiment: Microdilution MIC assay; settings: S. aureus MSSA ATCC 29213, 24 h at 35 °C
# Method in brief: as §1
# [3] = test system: S. aureus MRSA ATCC 46300; experiment: Microdilution MIC assay; settings: S. aureus MRSA ATCC 46300, 24 h at 35 °C
# Method in brief: as §1
# [4] = test system: E. faecalis VRE ATCC 19433; experiment: Microdilution MIC assay; settings: Enterococcus faecalis; E. faecalis VRE ATCC 19433, 24 h at 35 °C
# Method in brief: as §1
# [5] = test system: P. aeruginosa AGME ATCC 27853; experiment: Microdilution MIC assay; settings: Pseudomonas aeruginosa, ATCC27853; P. aeruginosa AGME ATCC 27853, 24 h at 35 °C
# Method in brief: as §1
# [6] = LDH cytotoxic activity assay, FL; settings: human, FL cells (normal cells)
# Protocol: (§2) The cell lines were cultured in a cell medium (Dulbecco’s modified eagle’s or RPMI 1640) enriched with 10% (v/v) fetal bovine serum and 2% (v/v) Penicillin-Streptomycin (10,000 U/mL). First, old medium was removed out of the flask when the cells reached approximately 80% confluence. Next, cells were taken from the flasks surface using trypsin-EDTA solution and then subjected to centrifugation. Following, the cell pellet was suspended with fresh media and was inoculated into wells.
# (§3) Approximately 5 × 10^3 cells in 100 μL were placed into 96-well plates as triplicates and treated with 25, 50, 75, and 100 μg/mL concentrations of test compounds at 37 °C with 5% CO2 for 24 h. LDH activity was obtained by determining absorbance at 492–630 nm using a microplate reader.
# [7] = LDH cytotoxic activity assay, Hep3B; settings: human, Hep3B cells
# Protocol: as §2, §3
# [8] = LDH cytotoxic activity assay, MCF7; settings: human, MCF7 cells; for cytotoxicity at 24 h, 25 μg/mL: MCF7, 25 μg/mL; for cytotoxicity at 24 h, 50 μg/mL: MCF7, 50 μg/mL; for cytotoxicity at 24 h, 75 μg/mL: MCF7, 75 μg/mL
# Protocol: as §2, §3
# [9] = LDH cytotoxic activity assay, A549; settings: human, A549 cells; for cytotoxicity at 24 h, 25 μg/mL: A549, 25 μg/mL; for cytotoxicity at 24 h, 50 μg/mL: A549, 50 μg/mL; for cytotoxicity at 24 h, 75 μg/mL: A549, 75 μg/mL; for cytotoxicity at 24 h, 100 μg/mL: A549, 100 μg/mL
# Protocol: as §2, §3
# [10] = Staphylococcus aureus, 24 h, read-out: MIC
# [11] = Staphylococcus aureus, read-out: MIC
# [12] = as the column head prints, head prints FL
MIC [1],MIC [2],"MIC [2, 10]","MIC [3, 11]",MIC [4],MIC [5],Structure (SMILES),also measured
250 µg/mL,125 µg/mL,62.5 to 125 µg/mL,125 µg/mL,> 1000 µg/mL,> 1000 µg/mL,"Cc1ccccc1-c1cc(-c2cccnc2)nc(N[C@@H]2O[C@H](CO)[C@@H](O)[C@H](O)[C@H]2O)n1 [Compound 2, N-[4-(2-methylphenyl)-6-pyridin-3-ylpyrimidin-2-yl]-β-D-glucopyranosylamine]",–
500 µg/mL,–,1000 µg/mL,1000 µg/mL,> 1000 µg/mL,> 1000 µg/mL,"Cc1ccccc1-c1cc(-c2ccncc2)nc(N[C@@H]2O[C@H](CO)[C@@H](O)[C@H](O)[C@H]2O)n1 [Compound 3, N-[4-(2-methylphenyl)-6-pyridin-4-ylpyrimidin-2-yl]-β-D-glucopyranosylamine]",–
250 µg/mL,125 µg/mL,62.5 to 125 µg/mL,250 µg/mL,> 1000 µg/mL,> 1000 µg/mL,"Cc1cccc(-c2cc(-c3cccnc3)nc(N[C@@H]3O[C@H](CO)[C@@H](O)[C@H](O)[C@H]3O)n2)c1 [Compound 5, N-[4-(3-methylphenyl)-6-pyridin-3-ylpyrimidin-2-yl]-β-D-glucopyranosylamine]","cytotoxicity at 24 h, 25 μg/mL ([6]; FL): 16.6%; cytotoxicity at 24 h, 50 μg/mL ([6]; FL): 32.9%; cytotoxicity at 24 h, 75 μg/mL ([6]; FL): 62.6%; cytotoxicity at 24 h, 100 μg/mL ([6]; FL): 76.8%; cytotoxicity at 24 h, 100 μg/mL [6, 12]: 36.4%; cytotoxicity at 24 h, 25 μg/mL [7]: 14.1%; cytotoxicity at 24 h, 50 μg/mL [7]: 25.5%; cytotoxicity at 24 h, 75 μg/mL [7]: 42.8%; cytotoxicity at 24 h, 100 μg/mL [7]: 52.5%; cytotoxicity at 24 h, 25 μg/mL [8]: 8.23%; cytotoxicity at 24 h, 50 μg/mL [8]: 12.2%; cytotoxicity at 24 h, 75 μg/mL [8]: 24.9%; cytotoxicity at 24 h, 25 μg/mL [9]: 24.4%; cytotoxicity at 24 h, 50 μg/mL [9]: 31.3%; cytotoxicity at 24 h, 75 μg/mL [9]: 51.5%; cytotoxicity at 24 h, 100 μg/mL [9]: 66.3%"
250 µg/mL,–,250 µg/mL,250 µg/mL,1000 µg/mL,> 1000 µg/mL,"Cc1ccc(-c2cc(-c3ccccn3)nc(N[C@@H]3O[C@H](CO)[C@@H](O)[C@H](O)[C@H]3O)n2)cc1 [Compound 7, N-[4-(4-methylphenyl)-6-pyridin-2-ylpyrimidin-2-yl]-β-D-glucopyranosylamine]","cytotoxicity at 24 h, 25 μg/mL ([6]; FL): 18.1%; cytotoxicity at 24 h, 50 μg/mL ([6]; FL): 30.5%; cytotoxicity at 24 h, 75 μg/mL ([6]; FL): 46.5%; cytotoxicity at 24 h, 100 μg/mL ([6]; FL): 73.2%; cytotoxicity at 24 h, 100 μg/mL [6, 12]: 40.7%; cytotoxicity at 24 h, 25 μg/mL [7]: 9.37%; cytotoxicity at 24 h, 50 μg/mL [7]: 17%; cytotoxicity at 24 h, 75 μg/mL [7]: 34.3%; cytotoxicity at 24 h, 100 μg/mL [7]: 44.5%; cytotoxicity at 24 h, 25 μg/mL [8]: 4.05%; cytotoxicity at 24 h, 50 μg/mL [8]: 20.1%; cytotoxicity at 24 h, 75 μg/mL [8]: 26.6%; cytotoxicity at 24 h, 25 μg/mL [9]: 24.3%; cytotoxicity at 24 h, 50 μg/mL [9]: 24.4%; cytotoxicity at 24 h, 75 μg/mL [9]: 27.4%; cytotoxicity at 24 h, 100 μg/mL [9]: 40.6%"
500 µg/mL,62.5 µg/mL,62.5 to 125 µg/mL,< 7.81 µg/mL,500 µg/mL,> 1000 µg/mL,"Cc1ccc(-c2cc(-c3cccnc3)nc(N[C@@H]3O[C@H](CO)[C@@H](O)[C@H](O)[C@H]3O)n2)cc1 [Compound 8, N-[4-(4-methylphenyl)-6-pyridin-3-ylpyrimidin-2-yl]-β-D-glucopyranosylamine]","MIC [3]: <7.81 µg/mL; cytotoxicity at 24 h, 25 μg/mL ([6]; FL): 20.8%; cytotoxicity at 24 h, 50 μg/mL ([6]; FL): 34.1%; cytotoxicity at 24 h, 75 μg/mL ([6]; FL): 41%; cytotoxicity at 24 h, 100 μg/mL ([6]; FL): 69.9%; cytotoxicity at 24 h, 100 μg/mL [6, 12]: 43.5%; cytotoxicity at 24 h, 25 μg/mL [7]: 15.6%; cytotoxicity at 24 h, 50 μg/mL [7]: 20.5%; cytotoxicity at 24 h, 75 μg/mL [7]: 36.2%; cytotoxicity at 24 h, 100 μg/mL [7]: 52.9%; cytotoxicity at 24 h, 25 μg/mL [8]: 10%; cytotoxicity at 24 h, 50 μg/mL [8]: 20.1%; cytotoxicity at 24 h, 75 μg/mL [8]: 32.8%; cytotoxicity at 24 h, 25 μg/mL [9]: 28.1%; cytotoxicity at 24 h, 50 μg/mL [9]: 26%; cytotoxicity at 24 h, 75 μg/mL [9]: 47.4%; cytotoxicity at 24 h, 100 μg/mL [9]: 58.1%"
> 1000 µg/mL,–,> 1000 µg/mL,1000 µg/mL,125 µg/mL,> 1000 µg/mL,"CC(=O)OC[C@H]1O[C@@H](Nc2nc(-c3ccccn3)cc(-c3ccccc3C)n2)[C@H](OC(C)=O)[C@@H](OC(C)=O)[C@@H]1OC(C)=O [Compound 10, 2,3,4,6-tetra-O-acetyl-N-[4-(2-methylphenyl)-6-pyridin-2-ylpyrimidin-2-yl]-β-D-glucopyranosylamine]",–
> 1000 µg/mL,125 µg/mL,62.5 to 125 µg/mL,1000 µg/mL,> 1000 µg/mL,> 1000 µg/mL,"CC(=O)OC[C@H]1O[C@@H](Nc2nc(-c3cccnc3)cc(-c3ccccc3C)n2)[C@H](OC(C)=O)[C@@H](OC(C)=O)[C@@H]1OC(C)=O [Compound 11, 2,3,4,6-tetra-O-acetyl-N-[4-(2-methylphenyl)-6-pyridin-3-ylpyrimidin-2-yl]-β-D-glucopyranosylamine]",–
> 1000 µg/mL,–,1000 µg/mL,500 µg/mL,1000 µg/mL,> 1000 µg/mL,"CC(=O)OC[C@H]1O[C@@H](Nc2nc(-c3ccncc3)cc(-c3ccccc3C)n2)[C@H](OC(C)=O)[C@@H](OC(C)=O)[C@@H]1OC(C)=O [Compound 12, 2,3,4,6-tetra-O-acetyl-N-[4-(2-methylphenyl)-6-pyridin-4-ylpyrimidin-2-yl]-β-D-glucopyranosylamine]",–
> 1000 µg/mL,125 µg/mL,62.5 to 125 µg/mL,500 µg/mL,1000 µg/mL,> 1000 µg/mL,"CC(=O)OC[C@H]1O[C@@H](Nc2nc(-c3cccc(C)c3)cc(-c3ccccn3)n2)[C@H](OC(C)=O)[C@@H](OC(C)=O)[C@@H]1OC(C)=O [Compound 13, 2,3,4,6-tetra-O-acetyl-N-[4-(3-methylphenyl)-6-pyridin-2-ylpyrimidin-2-yl]-β-D-glucopyranosylamine]",–
> 1000 µg/mL,125 µg/mL,62.5 to 125 µg/mL,250 µg/mL,1000 µg/mL,> 1000 µg/mL,"CC(=O)OC[C@H]1O[C@@H](Nc2nc(-c3cccnc3)cc(-c3cccc(C)c3)n2)[C@H](OC(C)=O)[C@@H](OC(C)=O)[C@@H]1OC(C)=O [Compound 14, 2,3,4,6-tetra-O-acetyl-N-[4-(3-methylphenyl)-6-pyridin-3-ylpyrimidin-2-yl]-β-D-glucopyranosylamine]",–
> 1000 µg/mL,–,250 µg/mL,250 µg/mL,1000 µg/mL,> 1000 µg/mL,"CC(=O)OC[C@H]1O[C@@H](Nc2nc(-c3ccncc3)cc(-c3cccc(C)c3)n2)[C@H](OC(C)=O)[C@@H](OC(C)=O)[C@@H]1OC(C)=O [Compound 15, 2,3,4,6-tetra-O-acetyl-N-[4-(3-methylphenyl)-6-pyridin-4-ylpyrimidin-2-yl]-β-D-glucopyranosylamine]",–
> 1000 µg/mL,125 µg/mL,62.5 to 125 µg/mL,1000 µg/mL,1000 µg/mL,> 1000 µg/mL,"CC(=O)OC[C@H]1O[C@@H](Nc2nc(-c3ccc(C)cc3)cc(-c3cccnc3)n2)[C@H](OC(C)=O)[C@@H](OC(C)=O)[C@@H]1OC(C)=O [Compound 17, 2,3,4,6-tetra-O-acetyl-N-[4-(4-methylphenyl)-6-pyridin-3-ylpyrimidin-2-yl]-β-D-glucopyranosylamine]",–
> 1000 µg/mL,–,1000 µg/mL,500 µg/mL,1000 µg/mL,> 1000 µg/mL,"CC(=O)OC[C@H]1O[C@@H](Nc2nc(-c3ccncc3)cc(-c3ccc(C)cc3)n2)[C@H](OC(C)=O)[C@@H](OC(C)=O)[C@@H]1OC(C)=O [Compound 18, 2,3,4,6-tetra-O-acetyl-N-[4-(4-methylphenyl)-6-pyridin-4-ylpyrimidin-2-yl]-β-D-glucopyranosylamine]",–
